According to paper PMC9227231, “TP-CSO: A Triptolide Prodrug for Pancreatic Cancer Treatment” (Molecules, 2022):

How the values were obtained:
[1] = tested on: Panco2 tumor; assay: In vivo antitumor study in Panco2 tumor-bearing mice
Description: The antitumor activity of the TP-CSO conjugate was evaluated on Panco2 tumor-bearing mice. First, C57 mice (20–25 g) were implanted subcutaneously with 2 × 10^6 Panco2 cells. When the tumor grew up to about 100 mm^3, the mice were orally administrated with 0.4 mg/kg TP and TP-CSO (0.2, 0.4 and 0.6 mg TP equivalent/kg) once every two days, respectively. The body weight and fatality rate were recorded. Mice in control groups were orally administrated with saline solution. The tumor volume was measured with calipers and calculated by the (1/2) (a × b²) formula (a is long diameter, b is short diameter). After 14 days of intragastric administration, the mice were sacrificed, and livers, kidney, and tumors were harvested.

[2] = Pharmacokinetics after gavage administration to rats (plasma level of free TP by LC-MS); design: species or system SD rats; conditions: Sprague-Dawley, rat, in vivo, po, 0.4 mg/kg
Description: To evaluate the in vivo pharmacokinetics of TP-CSO conjugate, the SD rats (250–300 g, Sprague-Dawley rat) fasted 12 h in advance and were randomized into two groups (n = 5) and respectively treated with TP (0.4 mg/kg) and TP-CSO (0.4 mg/kg, TP equivalent). The blood samples (500 µL) were collected through the ocular chorionic vein at 5, 15, 30, 60, 120, 180, 240, 360, 480 and 720 min after intragastric administration. Subsequently, the samples were immediately centrifuged at 3500 rpm for 15 min. An upper plasma sample was collected and kept at −80 °C.
Sample processing: to the plasma sample,10 µL of ferulic acid (2.5 ng/mL) was added as internal standard. The sample (100 µL) was placed in a 1.5 mL Eppendorf tube, to which 800 µL of ethyl acetate was added and vortexed for 3 min, and this was centrifuged at 12,000 rpm for 15 min. The upper solution was taken and blow dried with nitrogen at room temperature. The dried residue was dissolved in 100 µL of methanol-water (60:40, v/v) solution, vortexed for 3 min, subsequently centrifuged at 12,000 rpm for 15 min at 4 °C and the upper solution was collected into a 2 mL vial.
10 μL of sample was injected into a Watets C-18 column (2.1 mm × 50 mm, 1.8 µm) on a Sciex X500R QTOF Mass Spectrometer (UPLC-MS; Framingham, MA, USA). The column was eluted with methanol (A)/water (B) solution at a flow rate of 0.3 mL/min and a column temperature of 35 °C (0–6 min, A: 40%–90%; 6–8.1 min, A: 90%; 8.1–10 min, A: 40%). The operating conditions of UPLC-MS are as follows: electrospray ionization source (ESI), negative ionization mode; Ion spray voltage (ISV), 3500 V; Drying temperature, 325 °C; Flow rate of desolvent gas, 8.0 L/min; Atomization temperature, 350 °C. The pyrolysis energy and impact energy of TP were 120 V and 10 V, respectively, and those of ferulic acid were 90 V and 10 V, respectively. A multiple reaction monitoring mode (MRM) was used to monitor the transformation of TP from m/z [M-H] 359.1→241.1 and ferulic acid m/z [M-H] 193.1→134.1 to productions.

[3] = In vivo toxicity in healthy C57 mice
Description: The 30 normal C57 mice (20–25 g) were randomly divided into a normal saline group, TP (0.4 mg/kg) group and TP-CSO group (equivalent TP of 0.2, 0.4 and 0.6 mg/kg), respectively. The drugs were administered by a gavage once every two days for seven times. The body weight and fatality rate were recorded daily. On the 14th day, blood was collected from the eyes, and the organs were harvested after the mice were euthanized. A Beckman CX5 automated analyzer detected renal function indexes, liver function indexes (serum alanine aminotransferase (ALT), aspartic aminotransferase (AST)), and (blood urea nitrogen (BUN) creatinine (CRE)).

[4] = healthy C57 mice, day 14, 0.4 mg/kg TP equivalent (medium dose)

## CC(C)[C@]12O[C@H]1[C@@H]1O[C@]13[C@]1(O[C@H]1C[C@H]1C4=C(CC[C@@]13C)C(=O)OC4)[C@@H]2O [TP, Triptolide]
[1]; Panco2-bearing mice, oral once every two days, end of study, 0.4 mg TP equivalent/kg (medium dose)
  tumor-inhibition rate (TIR): 43.39%
[1]; mouse, in vivo, po, 0.4 mg/kg
  body weight vs control group: obvious decrease in body weight
[2]
  AUC(0-inf): 0.061 ng·h/mL
  Cmax: 0.021 ng/mL
  Tmax: 15 min
  half-life: 42.6 min
[3]; [4]
  BUN and CRE levels: significantly lower than in the control group
  serum ALT and AST levels: obviously higher than those in other groups
[3]; healthy C57 mice, gavage once every two days x7, 0.4 mg/kg TP equivalent (medium dose)
  body weight vs control group: obvious body weight loss but without lethality
[3]; mice, preliminary experiments
  minimum dose causing the death of mice: about 0.6 mg/kg
